Results: US4224448A, “2'-(5'-Nitrofuryl) substituted quinolines” (priority 1966, dated 1980)
In brackets after ≈: the same amount, converted by molar mass. Like-named read-outs stand apart in the source and are kept apart here.

Experiments:
Test in all cases: Minimum inhibitory concentration, conventional tube dilution method
Assay type in all cases: cell-based
[1] = tested on: Staph. aureus; conditions: Staphylococcus aureus, read-out: Minimal Inhibitory Concentration, Staph. aureus
Text: (§1) The activity of some of the new nitrofuryl quinoline derivatives of the present invention is exemplified in Table 1 against a gram-positive (Staph. aureus), a gram-negative (Salmonella) bacterium and a fungus (Candida albicans). Table 1 indicates the minimum inhibitory concentration of the compound under reference in mg/100 cc required in order to inhibit the growth between 1 and 6 strains of each type. The measurements have been carried out by the conventional tube dilution method at 37 degrees after 24 hours.

[2] = tested on: Candida albicans; conditions: read-out: Minimal Inhibitory Concentration, Cand. Alb.
Text: as §1

[3] = tested on: Salmonella; conditions: read-out: Minimal Inhibitory Concentration, Salm.
Text: as §1

[4] = gram-positive, tube dilution, 37 degrees, 24 hours, between 1 and 6 strains, mg/100 cc, decimal comma
[5] = fungus, tube dilution, 37 degrees, 24 hours, between 1 and 6 strains, mg/100 cc, decimal comma
[6] = gram-negative, tube dilution, 37 degrees, 24 hours, between 1 and 6 strains, mg/100 cc, decimal comma

O=[N+]([O-])c1ccc(-c2ccnc3ccccc23)o1 [H H NF H H H H, 4-[2'-(5'-nitrofuryl)]quinoline]
MIC [1, 4]: 0.1 to 0.5 µg/mL (≈ 0.416 to 2.08 µM)
MIC [2, 5]: 1 µg/mL (≈ 4.16 µM)
MIC [3, 6]: 5 µg/mL (≈ 20.8 µM)

Cc1cc(-c2ccc([N+](=O)[O-])o2)c2c([N+](=O)[O-])ccc(C)c2n1 [CH3 H NF NO2 H H CH3]
MIC ([1]; 24 h): 0.5 to 1 µg/mL (≈ 1.6 to 3.19 µM)
MIC ([2]; 24 h): > 50 µg/mL
MIC [3, 6]: > 50 µg/mL

COc1ccc2c(-c3ccc([N+](=O)[O-])o3)cc(C(=O)O)nc2c1 [COOH H 5NF H H OCH3 H]
MIC [1, 4]: 0.5 µg/mL (≈ 1.59 µM)
MIC [2, 5]: 50 µg/mL (≈ 159 µM)
MIC [3, 6]: 10 µg/mL (≈ 31.8 µM)

CCN(CC)C(=O)c1cc(-c2ccc([N+](=O)[O-])o2)c2ccccc2n1 [CON(C2 H5)2 H NF H H H H, 4-[2'-(5'-nitrofuryl)]quinoline-2-carboxylic acid diethylamide]
MIC [1, 4]: 0.5 to 1 µg/mL (≈ 1.47 to 2.95 µM)
MIC [2, 5]: > 50 µg/mL
MIC [3, 6]: > 50 µg/mL

CCOc1ccc2c(-c3ccc([N+](=O)[O-])o3)cc(C(=O)O)nc2c1 [COOH H NF H H OC2 H5 H, 2-carboxy-4-[2'-(5'-nitrofuryl)]-7-ethoxy quinoline]
MIC [1, 4]: 0.5 µg/mL (≈ 1.52 µM)
MIC [2, 5]: > 50 µg/mL
MIC [3, 6]: 5 µg/mL (≈ 15.2 µM)

CCc1cc(-c2ccc([N+](=O)[O-])o2)c2ccc(O)cc2n1 [C2 H5 H 5NF H H OH H]
MIC [1, 4]: 0.1 to 0.5 µg/mL (≈ 0.352 to 1.76 µM)
MIC [2, 5]: 50 µg/mL (≈ 176 µM)
MIC [3, 6]: 5 µg/mL (≈ 17.6 µM)

Cc1cc(-c2ccc([N+](=O)[O-])o2)c2ccc(O)cc2n1 [CH3 H NF H H OH H, 2-methyl-4-[2'-(5'-nitrofuryl)]-7-hydroxy quinoline]
MIC [1, 4]: 0.1 µg/mL (≈ 0.37 µM)
MIC [2, 5]: 10 µg/mL (≈ 37 µM)
MIC [3, 6]: 5 µg/mL (≈ 18.5 µM)

COc1ccc(OC)c2c(-c3ccc([N+](=O)[O-])o3)cc(C)nc12 [CH3 H NF OCH3 H H OCH3, 2-methyl-4-[2'-(5'-nitrofuryl)]-5,8-dimethoxy quinoline]
MIC [1, 4]: 50 µg/mL (≈ 159 µM)
MIC [2, 5]: > 50 µg/mL
MIC [3, 6]: > 50 µg/mL

CCCCOc1cc2nc(C)cc(-c3ccc([N+](=O)[O-])o3)c2cc1OCCCC [CH3 H NF H OC4 H9 OC4 H9 H]
MIC [1, 4]: 5 µg/mL (≈ 12.5 µM)
MIC [2, 5]: > 50 µg/mL
MIC [3, 6]: 10 µg/mL (≈ 25.1 µM)

CCOc1ccc2c(-c3ccc([N+](=O)[O-])o3)cc(C)nc2c1 [CH3 H NF H H OC2 H5 H, 2-methyl-4-[2'-(5'-nitrofuryl)]-7-ethoxy quinoline]
MIC [1, 4]: 0.1 µg/mL (≈ 0.335 µM)
MIC [2, 5]: 25 µg/mL (≈ 83.8 µM)
MIC [3, 6]: 5 µg/mL (≈ 16.8 µM)

Cc1cc(-c2ccc([N+](=O)[O-])o2)c2cc3ccccc3cc2[n+]1[O-] [O CH3 H NF H drawing 13 H]
MIC [1, 4]: 0.5 to 1 µg/mL (≈ 1.56 to 3.12 µM)
MIC [2, 5]: 50 µg/mL (≈ 156 µM)
MIC [3, 6]: > 50 µg/mL

CCc1cc(-c2ccc([N+](=O)[O-])o2)c2ccccc2n1 [C2 H5 H NF H H H H, 2-ethyl-4-[2'-(5'-nitrofuryl)]quinoline]
MIC [1, 4]: 0.1 µg/mL (≈ 0.373 µM)
MIC [2, 5]: 5 µg/mL (≈ 18.6 µM)
MIC [3, 6]: > 50 µg/mL

CCCc1cc(-c2ccc([N+](=O)[O-])o2)c2cc(C)ccc2n1 [C3 H7 H NF H CH3 H H]
MIC [1, 4]: 1 µg/mL (≈ 3.37 µM)
MIC [2, 5]: 5 to 10 µg/mL (≈ 16.9 to 33.7 µM)
MIC ([3]; 24 h): > 50 µg/mL

O=[N+]([O-])c1ccc(-c2cc(CO)nc3ccccc23)o1 [CH2 OH H NF H H H H, 2-Hydroxymethyl-4-[2'-(5'-nitrofuryl)]quinoline]
MIC [1, 4]: 0.1 µg/mL (≈ 0.37 µM)
MIC [2, 5]: 5 µg/mL (≈ 18.5 µM)
MIC [3, 6]: 5 to 10 µg/mL (≈ 18.5 to 37 µM)

CCCc1cc(-c2ccc([N+](=O)[O-])o2)c2cc(C)ccc2[n+]1[O-] [O C3 H7 H NF H CH3 H H]
MIC [1, 4]: 1 to 5 µg/mL (≈ 3.2 to 16 µM)
MIC [2, 5]: 5 to 25 µg/mL (≈ 16 to 80 µM)
MIC [3, 6]: > 50 µg/mL

Cc1ccc2c(-c3ccc([N+](=O)[O-])o3)cc(C)nc2c1 [CH3 H NF H H CH3 H, 2,7-dimethyl-4-[2'-(5'-nitrofuryl)]quinoline]
MIC [1, 4]: 0.05 to 0.1 µg/mL (≈ 0.186 to 0.373 µM)
MIC [2, 5]: 3 µg/mL (≈ 11.2 µM)
MIC [3, 6]: 2 to 5 µg/mL (≈ 7.46 to 18.6 µM)

O=[N+]([O-])c1ccc(-c2cc(CC(O)C(Cl)(Cl)Cl)nc3ccccc23)o1 (stereo not drawn) [drawing 12 H NF H H H H]
MIC [1, 4]: 0.5 µg/mL (≈ 1.24 µM)
MIC [2, 5]: > 50 µg/mL
MIC [3, 6]: > 50 µg/mL

CCOc1ccc2c(-c3ccc([N+](=O)[O-])o3)cc(C)[n+]([O-])c2c1 [O CH3 H NF H H OC2 H5 H]
MIC [1, 4]: 0.05 to 0.1 µg/mL (≈ 0.159 to 0.318 µM)
MIC [2, 5]: 10 µg/mL (≈ 31.8 µM)
MIC [3, 6]: 10 to 50 µg/mL (≈ 31.8 to 159 µM)

Cc1ccc2c(c1)c(-c1ccc([N+](=O)[O-])o1)cc(C)[n+]2[O-] [O CH3 H NF H CH3 H H]
MIC [1, 4]: 0.1 µg/mL (≈ 0.352 µM)
MIC [2, 5]: 2 to 5 µg/mL (≈ 7.04 to 17.6 µM)
MIC [3, 6]: > 25 µg/mL

COc1ccc2c(-c3ccc([N+](=O)[O-])o3)cc(C)[n+]([O-])c2c1 [O CH3 H NF H H OCH3 H, 2-methyl-4-[2'-(5'-nitrofuryl)]-7-methoxy quinoline N-oxide]
MIC [1, 4]: 0.1 µg/mL (≈ 0.333 µM)
MIC [2, 5]: 0.5 µg/mL (≈ 1.67 µM)
MIC [3, 6]: 5 µg/mL (≈ 16.7 µM)
